Laboratory results taken from ChEMBL document CHEMBL1641564, “In vitro evaluation of 5-arylidene-2-thioxo-4-thiazolidinones active as aldose reductase inhibitors” (Bioorg Med Chem Lett, 2011).

target: T1, Aldo-keto reductase family 1 member B1 (Homo sapiens, UniProt P15121); assay: Inhibition of aldose reductase at 37 uM

| Compound | inhibition [%] |
| --- | --- |
| O=C1N=C(O)S/C1=C\c1ccc(Oc2ccccc2)cc1 | 41 |

target: Aldo-keto reductase family 1 member B1 (Bos taurus) (UniProt P16116); assay: Inhibition of bovine lens aldose reductase assessed as inhibition of […] oxidation at 11 uM by non-linear regression analysis

| Compound | inhibition [%] |
| --- | --- |
| O=C1NC(=S)S/C1=C\c1ccc(OCc2ccccc2)cc1 | 7 |

target: Aldo-keto reductase family 1 member B1 (Bos taurus, UniProt P16116); assay: Inhibition of bovine lens aldose reductase assessed as inhibition of […] oxidation by non-linear regression analysis

| Compound | IC50 [nM] |
| --- | --- |
| COc1cccc(/C=C2\SC(=S)N(CC(=O)O)C2=O)c1 | 150 |
| O=C(O)CN1C(=O)/C(=C/c2ccc(Oc3ccccc3)cc2)SC1=S | 110 |
| O=C(O)CN1C(=O)/C(=C/c2ccc(OCc3ccccc3)cc2)SC1=S | 190 |
| O=C(O)CN1C(=O)/C(=C/c2cccc(Oc3ccccc3)c2)SC1=S | 410 |
| O=C(O)CN1C(=O)/C(=C/c2cccc(OCc3ccccc3)c2)SC1=S | 130 |

The remaining lines, values ahead:

| IC50 [nM] | Compound |
| --- | --- |
| 2270 | O=C1NC(=S)S/C1=C\c1cccc2ccccc12 |
| 4550 | O=C1NC(=S)S/C1=C\c1ccc(O)cc1 |
| 5230 | COc1ccc(/C=C2\SC(=S)NC2=O)cc1 |
| 1080 | O=C1NC(=S)S/C1=C\c1cccc(OCc2ccccc2)c1 |
| 1100 | O=C1NC(=S)S/C1=C\c1ccc(Oc2ccccc2)cc1 |
| 2940 | O=C1NC(=S)S/C1=C\c1cccc(Oc2ccccc2)c1 |
| 6240 | COc1cccc(/C=C2\SC(=S)NC2=O)c1 |

target: Aldo-keto reductase family 1 member B1 (Bos taurus) (UniProt P16116); assay: Inhibition of bovine lens aldose reductase assessed as inhibition of […] oxidation at 13 uM by non-linear regression analysis

| Compound | inhibition [%] |
| --- | --- |
| O=C1NC(=S)S/C1=C\c1ccc(-c2ccccc2)cc1 | 28 |

target: T1, Aldo-keto reductase family 1 member B1; assay: Inhibition of aldose reductase at 50 uM

| Compound | inhibition [%] |
| --- | --- |
| O=C1NC(=O)/C(=C/c2ccc(-c3ccccc3)cc2)S1 | 20 |
| O=C1N=C(O)S/C1=C\c1ccc(OCc2ccccc2)cc1 | 10 |

target: Aldo-keto reductase family 1 member B1 (Bos taurus) (UniProt P16116); assay: Inhibition of bovine lens aldose reductase assessed as inhibition of […] oxidation at 16 uM by non-linear regression analysis

| Compound | inhibition [%] |
| --- | --- |
| O=C1NC(=S)S/C1=C\c1ccc2ccccc2c1 | 40 |

target: T1, Aldo-keto reductase family 1 member B1; assay: Inhibition of aldose reductase

| Compound | IC50 [nM] |
| --- | --- |
| O=C(O)CN1C(=O)S/C(=C\c2ccc(OCc3ccccc3)cc2)C1=O | 280 |
| O=C1NC(=O)/C(=C/c2cccc(Oc3ccccc3)c2)S1 | 6140 |
| COc1cccc(/C=C2\SC(=O)N(CC(=O)O)C2=O)c1 | 480 |
| O=C(O)CN1C(=O)S/C(=C\c2ccc(Oc3ccccc3)cc2)C1=O | 820 |
| O=C(O)CN1C(=O)S/C(=C\c2cccc(Oc3ccccc3)c2)C1=O | 130 |
| O=C1NC(=O)/C(=C/c2cccc3ccccc23)S1 | 10700 |

More lines, now with the values ahead:

| IC50 [nM] | Compound |
| --- | --- |
| 8960 | O=C1NC(=O)/C(=C/c2ccc(O)cc2)S1 |
| 13300 | COc1cccc(/C=C2\SC(=O)NC2=O)c1 |
| 40800 | COc1ccc(/C=C2\SC(=O)NC2=O)cc1 |
